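Where inhibition never reached the appropriate level, the endpoint shown equals the highest concentration tested. Otherwise, values were interpolated linearly from a five-concentration, 48-hour dose response in 96-well plates. GI50: concentration for 50% inhibition of growth.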 Activity calls are given as the source filed them. Rule as the data show it: active = GI50 up to about 1.1 µM and inactive = higher.
Legend:
Test in all cases: NCI-60 cell line screen, 48 h
A549 = system: A549
ACHN = system: ACHN
EKVX = system: EKVX
HL-60 = system: HL-60
HOP-62 = system: HOP-62
HT-29 = system: HT-29
OVCAR-8 = system: OVCAR-8
RPMI-8226 = system: RPMI-8226
SK-MEL-28 = system: SK-MEL-28
SK-OV-3 = system: SK-OV-3
SN12C = system: SN12C
SW-620 = system: SW-620
UACC-257 = system: UACC-257
OVCAR-5 = system: OVCAR-5
SK-MEL-2 = system: SK-MEL-2
SNB-75 = system: SNB-75

Measured: GI50

Oc1cccc2c1NC1=C(CCC/C1=C\c1ccccc1)C2
inactive: A549 > 100 µM | ACHN 53.5 µM | EKVX > 100 µM | HL-60 40.1 µM | HOP-62 > 100 µM | HT-29 49.8 µM | OVCAR-8 > 100 µM | RPMI-8226 52 µM | SK-MEL-28 > 100 µM | SK-OV-3 > 100 µM | SN12C > 10 µM | SW-620 > 100 µM | UACC-257 57.9 µM

Cc1cccc(C)c1NC(=O)CCCC(=O)C(C#N)c1ccc(Cl)cc1 (stereo not drawn)
inactive: A549 > 100 µM | ACHN > 100 µM | EKVX > 100 µM | HL-60 > 100 µM | HOP-62 > 100 µM | HT-29 > 100 µM | OVCAR-5 > 100 µM | OVCAR-8 > 100 µM | RPMI-8226 > 100 µM | SK-MEL-28 > 100 µM | SK-MEL-2 > 100 µM | SK-OV-3 > 100 µM | SN12C > 100 µM | SNB-75 35.6 µM | SW-620 > 100 µM | UACC-257 > 100 µM

NC(CCSCCF)C(=O)O (stereo not drawn)
inactive: A549 > 100 µM | ACHN > 100 µM | EKVX > 100 µM | HL-60 > 100 µM | HOP-62 > 100 µM | HT-29 > 100 µM | OVCAR-5 > 100 µM | RPMI-8226 > 100 µM | SK-MEL-28 > 100 µM | SK-MEL-2 > 100 µM | SK-OV-3 > 100 µM | SN12C > 100 µM | SW-620 > 100 µM

Cn1cnc([N+](=O)[O-])c1Sc1nnnn1-c1ccccc1
inactive: A549 23.9 µM | ACHN 13.9 µM | EKVX 16 µM | HOP-62 > 100 µM | HT-29 15.7 µM | OVCAR-5 17.8 µM | OVCAR-8 13.8 µM | RPMI-8226 11.4 µM | SK-MEL-28 14.4 µM | SK-MEL-2 14.1 µM | SK-OV-3 46.9 µM | SN12C 15.7 µM | SNB-75 16.4 µM | SW-620 7.05 µM | UACC-257 13.7 µM

CC(=O)O[C@@H]1CC[C@@]2(C)C(=O)C34C[C@@]5(C)C([C@@H](C)CCCC(C)C)CCC5(C)[C@](O)(O3)C(=O)[C@H]4C2C1(C)C (stereo partly drawn)
inactive: A549 13.3 µM | ACHN 14 µM | EKVX 18.4 µM | HL-60 10.2 µM | HOP-62 17.7 µM | HT-29 13 µM | OVCAR-5 15.9 µM | OVCAR-8 16.5 µM | RPMI-8226 13.4 µM | SK-MEL-28 18.9 µM | SK-MEL-2 19.8 µM | SK-OV-3 18.3 µM | SN12C 13.2 µM | SNB-75 15.7 µM | SW-620 11.5 µM | UACC-257 17 µM
